Data taken from patent EP0335331A1, “O- (1,2-Di-O-acetyl-glycero-3-phosphoryl)ethanolamine, a process for its preparation and its therapeutic use” (MAGIS FARMACEUTICI S.p.A., priority 1988, dated 1989).

Columns and labels:
[1] = acute toxicity by the Weil method; conditions: in vivo, mouse, read-out: LD₅₀
Text: The acute toxicity of the compound of formula (I) was studied on the mouse by the Weil method [Weil C.S. Biometr. 8, 249 (1952)].

rat = assay: olive oil-induced alteration of lipoprotein state, plasma cholesterol and triglycerides; format: in vivo; conditions: normally fed rat treated orally with 15 ml/kg of olive oil; greatest effect two hours after the olive oil treatment
Experimental: The effect of the compound in terms of modifying the lipoprotein state and the plasma cholesterol and triglyceride levels, altered by oral administration of olive oil, was studied in normally fed rat treated orally with 15 ml/kg of olive oil at various concentrations.

For `CC(=O)OCC(COP(=O)(O)OCCN)OC(C)=O` (centres unmarked) [compound of formula (I), O-(1,2-di-O-acetylglycero-3-phosphoryl)ethanolamine], which LD50 [1] is on record?
The LD50 was > 2000 mg/kg.

What about the “effect on increase in triglycerides and cholesterol, reduction in the α-lipoproteins and increase in the β and pre-β fractions” value (rat) of the same molecule?
Its value is “well antagonised by the compound, which proved able to return the parameters to normality”.
